Measured values as given in patent US20260250312A1, “ANTIBACTERIAL COMPOUNDS ELIMINATING DORMANT BACTERIAL CELLS” (UNIVERSITÉ D'AIX-MARSEILLE, priority 2022, published 2026).
Where “and” joins values, the source holds several entries; their conditions need not be identical. Equal values may be shown once.

What was measured:
[1] = tested on: Pseudomonas aeruginosa (ATCC27853); experiment: Microdilution MIC assay (CLSI-based), P. aeruginosa; format: cell-based; settings: Pseudomonas aeruginosa, ATCC27853, 20 h, 20 hours incubation at 35-37° C., MHB; read-out: Minimum inhibitory concentration P. aeruginosa ATCC27853
Method: (§1) The antibacterial activity of compounds was measured using a standard microdilution assay based on the Clinical and Laboratory Standards Institute (CLSI) guidelines. This method was slightly modified. Indeed, assay volumes were increased to 200 μL to improve reproducibility. The chemical compounds to be tested were in the form of salts for biological testing.
(§2) Bacteria tested: Antibacterial activities of the compounds were tested on Staphylococcus aureus (ATCC25923), Enterococcus faecalis (ATCC29212), Escherichia coli ([…]) and Pseudomonas aeruginosa (ATCC27853).
(§3) Preparation of the Preculture: Mueller Hinton Agar plates were inoculated with frozen biological strain in order to obtain separate colonies and the plates were incubated during 24 h at 35-37° C. 3 colonies of similar aspect were picked out, resuspended in 5 mL of fresh Mueller Hinton broth 1× (MHB) and incubated with shaking (160 rpm) at 35-37° C. overnight.
(§4) 0.1 mL of bacteria in exponential phase were suspended in 9.9 mL of MHB (1:100 dilution). 0.1 mL of the 1:100 dilution were dispensed into the wells of microplates containing 0.1 ml of serial compounds dilutions to yield ca. 5×10^5 CFU/mL. In parallel, the stocks solutions of chemical compounds were first diluted in appropriate solvent to a final concentration of 5 mg/mL. 8 μL were dispended into the first wells of the microplates containing 0.1 ml of sterile broth and a 0.5 cascade dilution was performed in MHB from 0.2 mg/mL. One control was made for each strain tested. […] Tests were performed in triplicate.
(§5) Reading of the Results: After incubation, the filter was replaced with a transparent film, and an optical density reading was then taken in an iEMS plate spectrophotometer at 620 nm. Calculation of the minimum inhibitory concentration (MIC) was performed.

[2] = tested on: Escherichia coli (ATCC28922); experiment: Microdilution MIC assay (CLSI-based), E. coli; format: cell-based; settings: Escherichia coli, ATCC28922, 20 h, 20 hours incubation at 35-37° C., MHB; read-out: Minimum inhibitory concentration E. coli ATCC28922
Method: as §1, §2, §3, §4, §5

[3] = tested on: Enterococcus faecalis (ATCC29212); experiment: Microdilution MIC assay (CLSI-based), E. faecalis; format: cell-based; settings: Enterococcus faecalis, ATCC29212, 20 h, 20 hours incubation at 35-37° C., MHB; read-out: Minimum inhibitory concentration E. faecalis ATCC29212
Method: as §1, §2, §3, §4, §5

CHO-K1 cells = experiment: WST1 cytotoxicity test; format: cell-based, Chinese hamster; settings: Cricetulus griseus, CHO-K1, 24 h, WST1, 24 hours at 37° C.; read-out: IC50 CHO
Description: Cytotoxicity: The test WST1 was used to measure the cytotoxic activity of the compounds of the invention. The test WST1 is a colorimetric test allowing to measure the viability and the degree of cell proliferation. It is based on cleavage of the colorless tetrazolium salts WST-1 (4—[3-(4-iodophenyl)-2-(4-nitrophenyl)-2H-5-tetrazolio]-1,3-benzene disulfonate) with mitochondrial dehydrogenases to the yellow-colored formazan derivative, which may be quantified by spectrophotometry at 420-480 nm. The WST1 test was performed on Chinese hamster ovary (CHO) cells. The CHO-K1 cells (ATCC, USA) were kept in culture in McCoy's 5A medium supplemented with 10% fetal calf serum, 2 mM of L-glutamine and a mixture of penicillin-streptomycin (100 U/ml: 10 μg/mL). The culture was incubated at 37° C. under an atmosphere enriched in CO2 (5%), and subcultured every two days. The cells were transferred into 96-well plates (25,000 cells/mL) in whole McCoy's 5A medium, and maintained for 24 hours at 37° C. under a humid atmosphere enriched in CO2 (5%). Increasing concentrations of tested compounds were added to the wells, each compound was tested in replicates and 8 growth controls containing the cells in the medium alone were included in each series of tests. After 24 hours at 37° C. (5% CO2), the culture medium was removed, the cells were rinsed in phosphate buffer (PBS) and 50 μL of PBS containing 10% of reagent WST1 were added to each well. After 20 minutes of incubation at 37° C., the results were read by spectrophotometry at 450 nm. The results are expressed in dose-response relationships, modeled by nonlinear regression analysis using the TableCurve software.
Cytotoxicity: The same WST1 test as described in Example 2 above was used.

[4] = tested on: Staphylococcus aureus (ATCC25923); experiment: Microdilution MIC assay (CLSI-based), S. aureus; format: cell-based; settings: Staphylococcus aureus, ATCC25923, 20 h, 20 hours incubation at 35-37° C., MHB; read-out: Minimum inhibitory concentration S. aureus ATCC25923
Method: as §1, §2, §3, §4, §5

Structure (SMILES)	MIC [1]	MIC [2]	MIC [3]	IC50 (CHO-K1 cells)	MIC [4]
COC(=O)[C@H]1CCCN1C(=O)CC[C@@H](C)[C@H]1CCC2C3C(CC[C@@]21C)[C@@]1(C)CC[C@H](NCCCNCCCN)C[C@H]1C[C@H]3O (stereo partly drawn) [Compound S045, methyl ((4R)-4-((3S,5S,7R,10S,13R,17R)-3-((3-((3-aminopropyl)amino)propyl)amino)-7-hydroxy-10,13-dimethylhexadecahydro-1H-cyclopenta[a]phenanthren-17-yl)pentanoyl)-D-prolinate]	16 µg/mL and 25 µM	4 µg/mL and 6.25 µM	4 µg/mL and 6.25 µM	7.77 µg/mL and 12.6 µM	2 µg/mL and 3.13 µM
COC(=O)[C@@H](Cc1ccccc1)NC(=O)CC[C@@H](C)[C@H]1CCC2C3C(CC[C@@]21C)[C@@]1(C)CC[C@H](NCCCNCCCNCCCN)C[C@H]1C[C@H]3O (stereo partly drawn) [Compound S022, methyl ((4R)-4-((3S,5S,7R,10S,13R,17R)-3-((3-((3-((3-aminopropyl)amino)propyl)amino)propyl)amino)-7-hydroxy-10,13-dimethylhexadecahydro-1H-cyclopenta[a]phenanthren-17-yl)pentanoyl)-D-phenylalaninate]	12.5 µM and 8 µg/mL	12.5 µM and 8 µg/mL	25 µM and 16 µg/mL	17.1 µM and 12.4 µg/mL	12.5 µM and 8 µg/mL
COC(=O)[C@H](Cc1ccc(O)cc1)NC(=O)CC[C@@H](C)[C@H]1CCC2C3C(CC[C@@]21C)[C@@]1(C)CC[C@H](NCCCNCCCN)C[C@H]1C[C@H]3O (stereo partly drawn) [Compound S040, methyl ((4R)-4-((3S,5S,7R,10S,13R,17R)-3-((3-((3-aminopropyl)amino)propyl)amino)-7-hydroxy-10,13-dimethylhexadecahydro-1H-cyclopenta[a]phenanthren-17-yl)pentanoyl)-L-tyrosinate]	50 µM and 32 µg/mL	50 µM and 32 µg/mL	25 µM and 16 µg/mL	155 µM and 106 µg/mL	25 µM and 16 µg/mL
COC(=O)[C@H](NC(=O)CC[C@@H](C)[C@H]1CCC2C3CC[C@@H]4C[C@@H](NCCCN(CCCN)CCCN)CC[C@]4(C)C3C[C@H](O)[C@@]21C)C(C)C (stereo partly drawn) [Compound S054, methyl ((4R)-4-((3S,5R,10S,12S,13R,17R)-3-((3-(bis(3-aminopropyl)amino)propyl)amino)-12-hydroxy-10,13-dimethylhexadecahydro-1H-cyclopenta[a]phenanthren-17-yl)pentanoyl)-D-valinate]	100 µM and 64 µg/mL	50 µM and 32 µg/mL	100 µM and 64 µg/mL	> 100 µM and > 67 µg/mL	6.25 µM and 4 µg/mL
COC(=O)[C@H](NC(=O)CC[C@@H](C)[C@H]1CCC2C3C(CC[C@@]21C)[C@@]1(C)CC[C@H](NCCNCCNCCN)C[C@H]1C[C@H]3O)C(C)C (stereo partly drawn) [Compound S012, methyl ((4R)-4-((3S,5S,7R,10S,13R,17R)-3-((2-((2-((2-aminoethyl)amino)ethyl)amino)ethyl)amino)-7-hydroxy-10,13-dimethylhexadecahydro-1H-cyclopenta[a]phenanthren-17-yl)pentanoyl)-D-valinate]	100 µM and 64 µg/mL	100 µM and 64 µg/mL	25 µM and 16 µg/mL	101 µM and 64.2 µg/mL	50 µM and 32 µg/mL
COC(=O)[C@H](Cc1ccccc1)NC(=O)CC[C@@H](C)[C@H]1CCC2C3C(CC[C@@]21C)[C@@]1(C)CC[C@H](NCCCN)C[C@H]1C[C@H]3O (stereo partly drawn) [Compound S016, methyl ((4R)-4-((3S,5S,7R,10S,13R,17R)-3-((3-aminopropyl)amino)-7-hydroxy-10,13-dimethylhexadecahydro-1H-cyclopenta[a]phenanthren-17-yl)pentanoyl)-L-phenylalaninate]	50 µM and 32 µg/mL	25 µM and 16 µg/mL	25 µM and 16 µg/mL	66 µM and 40.2 µg/mL	12.5 µM and 8 µg/mL
COC(=O)CNC(=O)CC[C@@H](C)[C@H]1CCC2C3C(CC[C@@]21C)[C@@]1(C)CC[C@H](NCCCN(CCCN)CCCN)C[C@H]1C[C@H]3O (stereo partly drawn) [Compound S005, methyl ((4R)-4-((3S,5S,7R,10S,13R,17R)-3-((3-(bis(3-aminopropyl)amino)propyl)amino)-7-hydroxy-10,13-dimethylhexadecahydro-1H-cyclopenta[a]phenanthren-17-yl)pentanoyl)glycinate]	> 200 µM and > 126 µg/mL	> 200 µM and > 126 µg/mL	200 µM and 128 µg/mL	> 100 µM and > 64 µg/mL	12.5 µM and 8 µg/mL
COC(=O)[C@H](Cc1ccccc1)NC(=O)CC[C@@H](C)[C@H]1CCC2C3C(CC[C@@]21C)[C@@]1(C)CC[C@H](NCCCN(CCCN)CCCN)C[C@H]1C[C@H]3O (stereo partly drawn) [Compound S037, methyl ((4R)-4-((3S,5S,7R,10S,13R,17R)-3-((3-(bis(3-aminopropyl)amino)propyl)amino)-7-hydroxy-10,13-dimethylhexadecahydro-1H-cyclopenta[a]phenanthren-17-yl)pentanoyl)-L-phenylalaninate]	25 µM and 16 µg/mL	6.25 µM and 4 µg/mL	6.25 µM and 4 µg/mL	127 µM and 91.7 µg/mL	6.25 µM and 4 µg/mL
COC(=O)[C@H](Cc1ccccc1)NC(=O)CC[C@@H](C)[C@H]1CCC2C3C(CC[C@@]21C)[C@@]1(C)CC[C@H](NCCCN(C)CCCN)C[C@H]1C[C@H]3O (stereo partly drawn) [Compound S031, methyl ((4R)-4-((3S,5S,7R,10S,13R,17R)-3-((3-((3-aminopropyl)(methyl)amino)propyl)amino)-7-hydroxy-10,13-dimethylhexadecahydro-1H-cyclopenta[a]phenanthren-17-yl)pentanoyl)-L-phenylalaninate]	25 µM and 16 µg/mL	12.5 µM and 8 µg/mL	25 µM and 16 µg/mL	84.5 µM and 57.6 µg/mL	6.25 µM and 4 µg/mL
COC(=O)[C@H](NC(=O)CC[C@@H](C)[C@H]1CCC2C3CC[C@@H]4C[C@@H](NCCCN5CCN(CCCN)CC5)CC[C@]4(C)C3C[C@H](O)[C@@]21C)C(C)C (stereo partly drawn) [Compound S053, methyl ((4R)-4-((3S,5R,10S,12S,13R,17R)-3-((3-(4-(3-aminopropyl)piperazin-1-yl)propyl)amino)-12-hydroxy-10,13-dimethylhexadecahydro-1H-cyclopenta[a]phenanthren-17-yl)pentanoyl)-D-valinate]	> 200 µM and > 128 µg/mL	100 µM and 64 µg/mL	200 µM and 128 µg/mL	> 100 µM and > 68 µg/mL	12.5 µM and 8 µg/mL
